Results reported in patent US20260337231A1, “METHOD FOR PRODUCING CYCLIC PEPTIDE COMPOUND” (CHUGAI SEIYAKU KABUSHIKI KAISHA, priority 2023, published 2026).

What was measured:
[1] = Crystal form after drying under reduced pressure (powder X-ray diffraction); type: physicochemical
Protocol: The amorphous powder of Compound 1 (10.7 mg) was dissolved in 2-propanol (32.1 μL), and about 0.1 mg of the crystal obtained in Example 3-1 was added. Thereafter, heptane ([…]) was added, and the mixture was shaken at room temperature for 3 hours. Furthermore, heptane (21.4 μL) was added, and after shaking at room temperature for 2 hours, heptane (21.4 μL) was added and the mixture was shaken at room temperature for 3 hours. Heptane (21.4 μL) was further added, and the mixture was shaken at room temperature for 15 hours, thereby obtaining a crystal (form E) of compound 1. Single crystal X-ray structural analysis was performed on the obtained crystal (Example 4-8), and it was confirmed to be a 2-propanol/heptane/water solvate. […] The obtained crystal (form E) was dried under reduced pressure, and powder X-ray diffraction measurement was performed (Example 4-3).
The amorphous powder of Compound 1 (9.0 mg) was dissolved in ethanol (27.0 μL), heptane (27.0 μL) was added, and the mixture was shaken at room temperature for 4 minutes. About 0.1 mg of the crystal obtained in Example 3-4 was added, and the mixture was shaken at room temperature for 1 minute to obtain a crystal of compound 1. Single crystal X-ray structural analysis was performed (Example 4-9), confirming that the obtained crystal is an ethanol/water solvate crystal (form H). […] The obtained crystal (form H) was dried under reduced pressure, and powder X-ray diffraction measurement was performed (Example 4-3).
The amorphous powder of Compound 1 (10.9 mg) was dissolved in ethyl acetate (32.7 μL), heptane (32.7 μL) was added, and the mixture was shaken at room temperature for 4 minutes. About 0.1 mg of the crystal obtained in Example 3-5 was added, and the mixture was shaken at room temperature for 1 minute, thereby obtaining a crystal of compound 1. Single crystal X-ray structural analysis was performed (Example 4-9), confirming that the obtained crystal is an ethyl acetate/water solvate crystal (form C). […] The obtained crystal (form C) was dried under reduced pressure, and powder X-ray diffraction measurement was performed (Example 4-3).
The crystal (form A, 6.8 mg) of compound 1 obtained in Example 3-8 was dissolved in dimethyl sulfoxide (0.12 mL), and the mixture was shaken and stirred at room temperature for 13 days. Furthermore, water (1 μL) was added and the mixture was stirred at room temperature for 34 days to obtain a crystal of compound 1. The obtained crystal was confirmed to be a dimethyl sulfoxide/water solvate crystal (form L) by single crystal X-ray structural analysis (Example 4-8). […] Powder X-ray diffraction measurement (Example 4-3) on the crystal obtained by performing the same procedure confirmed that the form L is a solvate crystal that is amorphized by drying under reduced pressure.
To the crystal (form B, 45.8 mg) of compound 1, propylene glycol (0.12 mL) was added, and the mixture was stirred at room temperature for 5 minutes. Furthermore, propylene glycol (0.020 mL) was added, and the mixture was stirred at 40° C. for 5 minutes. Thereafter, propylene glycol (0.070 mL) was added, the mixture was stirred at 40° C. for 5 minutes and further allowed to stand still for 5 hours. Propylene glycol (0.070 mL) was further added, and the mixture was stirred at 35° C. for overnight. Then, propylene glycol (0.070 mL) was added and the mixture was stirred for about 1 minute to obtain a wet powder of compound 1. […]

[2] = Thermogravimetry-differential thermal analysis (TG-DTA); type: physicochemical; details: 10° C./min, nitrogen, at 157° C., Example 3-17
Protocol: The thermogravimetry-differential thermal analysis (TG-DTA) for Example 3-8, Example 3-9, Example 3-12, Example 3-13, Example 3-17, and Example 3-19 was performed under the following conditions. • Measurement apparatus: STA7200RV+AS-3T (manufactured by Hitachi High-Tech Science Corporation) • Measurement range: 30 to 350° C. • Heating rate: 10° C./min • Atmosphere: nitrogen • Measurement: The sample was weighed in an open aluminum pan and covered with a mesh to perform the measurement.

For `CCC[C@H]1C(=O)N[C@@H]([C@@H](C)CC)C(=O)N2CCC[C@H]2C(=O)N(C)[C@H]2C/C=C\CCN(C2=O)[C@@H](Cc2ccc(C(F)(F)F)cc2)C(=O)N(C)CC(=O)N[C@@H](CCc2ccc(C(F)(F)F)c(OC)c2)C(=O)N2C[C@H](OCC)C[C@H]2C(=O)N(C)C2(CCC2)C(=O)N(C)[C@@H](C2CCCC2)C(=O)N(C)[C@H](C(=O)N(C)C)CC(=O)N1C` [form C], the “transformation after drying under reduced pressure” value ([1]; drying under reduced pressure) was “transformed into the hydrate crystal (form B)”.

In the case of `CCC[C@H]1C(=O)N[C@@H]([C@@H](C)CC)C(=O)N2CCC[C@H]2C(=O)N(C)[C@H]2C/C=C\CCN(C2=O)[C@@H](Cc2ccc(C(F)(F)F)cc2)C(=O)N(C)CC(=O)N[C@@H](CCc2ccc(C(F)(F)F)c(OC)c2)C(=O)N2C[C@H](OCC)C[C@H]2C(=O)N(C)C2(CCC2)C(=O)N(C)[C@@H](C2CCCC2)C(=O)N(C)[C@H](C(=O)N(C)C)CC(=O)N1C` [form E], the “transformation after drying under reduced pressure” value ([1]; drying under reduced pressure) is reported as “transformed into the hydrate crystal (form A)”.

With `CCC[C@H]1C(=O)N[C@@H]([C@@H](C)CC)C(=O)N2CCC[C@H]2C(=O)N(C)[C@H]2C/C=C\CCN(C2=O)[C@@H](Cc2ccc(C(F)(F)F)cc2)C(=O)N(C)CC(=O)N[C@@H](CCc2ccc(C(F)(F)F)c(OC)c2)C(=O)N2C[C@H](OCC)C[C@H]2C(=O)N(C)C2(CCC2)C(=O)N(C)[C@@H](C2CCCC2)C(=O)N(C)[C@H](C(=O)N(C)C)CC(=O)N1C` [form H] the “transformation after drying under reduced pressure” value ([1]; drying under reduced pressure) was “transformed into the hydrate crystal (form B)”.

For `CCC[C@H]1C(=O)N[C@@H]([C@@H](C)CC)C(=O)N2CCC[C@H]2C(=O)N(C)[C@H]2C/C=C\CCN(C2=O)[C@@H](Cc2ccc(C(F)(F)F)cc2)C(=O)N(C)CC(=O)N[C@@H](CCc2ccc(C(F)(F)F)c(OC)c2)C(=O)N2C[C@H](OCC)C[C@H]2C(=O)N(C)C2(CCC2)C(=O)N(C)[C@@H](C2CCCC2)C(=O)N(C)[C@H](C(=O)N(C)C)CC(=O)N1C` [form L], the “transformation after drying under reduced pressure” value ([1]; drying under reduced pressure) was “amorphized”.

For `CCC[C@H]1C(=O)N[C@@H]([C@@H](C)CC)C(=O)N2CCC[C@H]2C(=O)N(C)[C@H]2C/C=C\CCN(C2=O)[C@@H](Cc2ccc(C(F)(F)F)cc2)C(=O)N(C)CC(=O)N[C@@H](CCc2ccc(C(F)(F)F)c(OC)c2)C(=O)N2C[C@H](OCC)C[C@H]2C(=O)N(C)C2(CCC2)C(=O)N(C)[C@@H](C2CCCC2)C(=O)N(C)[C@H](C(=O)N(C)C)CC(=O)N1C` [form M], the “transformation after drying under reduced pressure” value ([1]; dried under reduced pressure at room temperature for overnight) was “transformed into a form N crystal”.

For `CCC[C@H]1C(=O)N[C@@H]([C@@H](C)CC)C(=O)N2CCC[C@H]2C(=O)N(C)[C@H]2C/C=C\CCN(C2=O)[C@@H](Cc2ccc(C(F)(F)F)cc2)C(=O)N(C)CC(=O)N[C@@H](CCc2ccc(C(F)(F)F)c(OC)c2)C(=O)N2C[C@H](OCC)C[C@H]2C(=O)N(C)C2(CCC2)C(=O)N(C)[C@@H](C2CCCC2)C(=O)N(C)[C@H](C(=O)N(C)C)CC(=O)N1C` [form N], the weight reduction [2] was “about 11%”.
